Laboratory results taken from patent publication US20100267743A1, “3-(PHENOXYPYRROLIDIN-3-YL-METHYL)HETEROARYL, 3-(PHENYLPYRROLIDIN-3-YLMETHOXY)HETEROARYL, AND 3-(HETEROARYLPYRROLIDIN-3-YLMETHOXY)HETEROARYL COMPOUNDS” (priority 2009, published 2010).

Legend:
SERT = SERT (Homo sapiens, UniProt P31645); assay: hSERT radioligand binding assay (3H-citalopram); parameters: expressed in transfected cells; host or cells: HEK-293; conditions: hSERT membranes (HEK-293), 1.0 nM 3H-citalopram; for Ki: read-out: SERT pKi (converted)
Sequence of SERT (P31645 whole entry): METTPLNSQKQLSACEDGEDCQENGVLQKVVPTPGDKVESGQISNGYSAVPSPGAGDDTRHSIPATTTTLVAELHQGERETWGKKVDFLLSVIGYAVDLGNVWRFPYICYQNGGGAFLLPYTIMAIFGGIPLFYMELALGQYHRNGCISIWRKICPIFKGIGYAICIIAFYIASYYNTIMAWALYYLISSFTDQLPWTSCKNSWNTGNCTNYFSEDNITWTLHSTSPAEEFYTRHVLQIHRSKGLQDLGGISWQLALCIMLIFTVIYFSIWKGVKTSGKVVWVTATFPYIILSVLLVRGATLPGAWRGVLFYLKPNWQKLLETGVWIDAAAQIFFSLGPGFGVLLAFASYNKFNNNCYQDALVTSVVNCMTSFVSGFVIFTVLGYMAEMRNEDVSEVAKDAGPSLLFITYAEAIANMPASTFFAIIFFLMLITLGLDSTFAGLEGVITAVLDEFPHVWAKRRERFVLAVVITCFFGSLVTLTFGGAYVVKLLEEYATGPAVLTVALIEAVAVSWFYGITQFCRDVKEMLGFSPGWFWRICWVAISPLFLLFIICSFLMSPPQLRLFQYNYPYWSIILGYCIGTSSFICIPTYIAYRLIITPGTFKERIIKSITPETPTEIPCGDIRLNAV
Protocol: (§1) Membrane radioligand binding assays were used to measure inhibition of labeled ligand (^3H-citalopram or ^3H-nisoxetine or ^3H-WIN35428) binding to membranes prepared from cells expressing the respective human recombinant transporter (hSERT or hNET or hDAT) in order to determine the pKi values of test compounds at the transporters.
(§2) Recombinant human embryonic kidney (HEK-293) derived cell lines stably transfected with hSERT or hNET, respectively, were grown in DMEM medium supplemented with 10% dialyzed FBS (for hSERT) or FBS (for hNET), 100 μg/ml penicillin, 100 μg/ml streptomycin, 2 mM L-glutamine and 250 μg/ml of the aminoglycoside antibiotic G418, in a 5% CO2 humidified incubator at 37° C. When cultures reached 80% confluence, the cells were washed thoroughly in PBS (without […] and Mg^2+) and lifted with 5 mM EDTA in PBS. Cells were pelleted by centrifugation, resuspended in lysis buffer (10 mM Tris-HCl, pH7.5 containing 1 mM EDTA), homogenized, pelleted by centrifugation, then resuspended in 50 mM Tris-HCl, pH 7.5 and 10% sucrose at 4° C. Protein concentration of the membrane suspension was determined using a Bio-Rad Bradford Protein Assay kit. Membranes were snap frozen and stored at −80° C. Chinese hamster ovary membranes expressing hDAT (CHO-DAT) were purchased from PerkinElmer and stored at −80° C.
(§3) Binding assays were performed in a 96-well assay plate in a total volume of 200 μl assay buffer (50 mM Tris-HCl, 120 mM NaCl, 5 mM KCl, pH 7.4) with 0.5, 1, and 3 μg membrane protein, for SERT, NET and DAT, respectively.
(§4) Stock solutions (10 mM in DMSO) of test compound were prepared and serial dilutions made using Dilution Buffer (50 mM Tris-HCl, 120 mM NaCl, 5 mM KCl, pH 7.4, 0.1% BSA, 400 μM ascorbic acid).
(§5) Following a 60 minute incubation at 22° C. (or a period sufficient to reach equilibrium), the membranes were harvested by rapid filtration over a 96-well UniFilter GF/B plate, pretreated with 0.3% polyethyleneimine, and washed 6 times with 300 μl wash buffer (50 mM Tris-HCl, 0.9% NaCl, pH 7.5 at 4° C.). Plates were dried overnight at room temperature, ˜45 μl of MicroScint™-20 (Perkin Elmer) added and bound radioactivity quantitated via liquid scintillation spectroscopy. Inhibition curves and saturation isotherms were analyzed using GraphPad Prism Software package (GraphPad Software, Inc., San Diego, Calif.). IC50 values were generated from concentration response curves using the Sigmoidal Dose Response (variable slope) algorithm in Prism GraphPad. Kd and Bmax values for the radioligand were generated from saturation isotherms using the Saturation Binding Global Fit algorithm in Prism GraphPad. pKi (negative decadic logarithm of Ki) values for test compounds were calculated from the best-fit IC50 values, and the Kd value of the radioligand, using the Cheng-Prusoff equation (Cheng & Prusoff (1973) Biochem. Pharmacol. 22(23):3099-3108): Ki=IC50/(1+[L]/Kd), where [L]=concentration radioligand.

NET = NET (Homo sapiens, UniProt P23975); assay: hNET radioligand binding assay (3H-nisoxetine); parameters: expressed in transfected cells; host or cells: HEK-293; conditions: hNET membranes (HEK-293), 1.0 nM 3H-nisoxetine; for Ki: read-out: NET pKi (converted)
Sequence of NET (P23975 whole entry): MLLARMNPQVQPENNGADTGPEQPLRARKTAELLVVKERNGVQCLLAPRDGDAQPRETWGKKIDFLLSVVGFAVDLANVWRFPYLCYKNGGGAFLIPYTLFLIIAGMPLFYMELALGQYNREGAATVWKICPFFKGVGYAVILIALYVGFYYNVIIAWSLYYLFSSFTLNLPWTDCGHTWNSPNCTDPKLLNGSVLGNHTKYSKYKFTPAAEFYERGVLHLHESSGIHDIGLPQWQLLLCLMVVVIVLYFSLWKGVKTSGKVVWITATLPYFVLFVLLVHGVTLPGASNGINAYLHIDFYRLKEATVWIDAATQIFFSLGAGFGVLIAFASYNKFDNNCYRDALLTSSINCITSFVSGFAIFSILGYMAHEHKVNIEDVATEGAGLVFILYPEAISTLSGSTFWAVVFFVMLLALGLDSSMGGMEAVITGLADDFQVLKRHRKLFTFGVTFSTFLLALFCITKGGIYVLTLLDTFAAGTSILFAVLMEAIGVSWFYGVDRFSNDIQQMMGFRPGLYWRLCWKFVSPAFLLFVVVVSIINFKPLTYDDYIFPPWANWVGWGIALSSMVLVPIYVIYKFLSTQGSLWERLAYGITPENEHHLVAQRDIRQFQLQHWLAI
Protocol: as §1, §2, §3, §4, §5

| SMILES | Ki (SERT) [nM] | Ki (NET) [nM] | SERT pKi (SERT) | NET pKi (NET) |
| --- | --- | --- | --- | --- |
| Fc1cncc(C(Oc2c(F)ccc(F)c2Cl)C2CCNC2)c1 [Example 2-50, 3-[(S)-(2-Chloro-3,6-difluorophenoxy)-(S)-pyrrolidin-3-yl-methy1]-5-fluoropyridine] | ≤ 100 | ≤ 10000 | – | – |
| Fc1cc(O[C@@H](c2ccccc2)[C@H]2CCNC2)cnc1F.O=C(O)C(F)(F)F [15-21] | – | – | ≧5.0 | ≧7.0 |
| Clc1cc(Cl)cc(OC(c2nccs2)C2CCNC2)c1 [Example 5-26, 2-[(R)-(3,5-Dichlorophenoxy)-((S)-pyrrolidin-3-yl-methyl]thiazole] | ≤ 100 | ≤ 100 | – | – |
| Cc1cccc(C)c1O[C@@H](c1ncco1)[C@H]1CCNC1.O=C(O)C(F)(F)F [6-14] | – | – | ≧7.0 | ≧7.0 |
| Clc1ccc(O[C@H](c2ccccc2)[C@@H]2CCNC2)cn1.O=C(O)C(F)(F)F [15-23] | – | – | ≧7.0 | ≧5.0 |
| Clc1ccccc1O[C@@H](c1ncco1)[C@H]1CCNC1 [6-19] | – | – | ≧5.0 | ≧7.0 |
| Clc1cc(Cl)cc(O[C@H](c2cncc(Cl)c2)[C@H]2CCNC2)c1 [Example 2-16, 3-Chloro-5-[(S)-(3,5-dichlorophenoxy)-(S)-pyrrolidin-3-yl-methyl]pyridine] | ≤ 100 | ≤ 100 | – | – |
| Clc1ncccc1O[C@@H](c1ccccc1)[C@H]1CCNC1.O=C(O)C(F)(F)F [15-6] | – | – | ≧7.0 | ≧7.0 |
| Fc1cc(Cl)cnc1O[C@@H](c1ccccc1)[C@H]1CCNC1.O=C(O)C(F)(F)F [14-28] | – | – | ≧7.0 | ≧5.0 |
| Cc1cccnc1OC(c1ccccc1)C1CCNC1 (stereo not drawn) [14-37] | – | – | ≧5.0 | ≧5.0 |
| Cc1ccc(Cl)c(O[C@H](c2ccncc2)[C@H]2CCNC2)c1Cl [Example 3-7, 4-[(S)-(2,6-Dichloro-3-methylphenoxy)-(S)-pyrrolidin-3-yl-methyl]pyridine] | ≤ 100 | ≤ 100 | – | – |
| Clc1cccc(Cl)c1O[C@H](c1ccncc1)[C@H]1CCNC1 [Example 3-5, 4-[(S)-(2,6-Dichlorophenoxy)-(S)-pyrrolidin-3-yl-methyl]pyridine] | ≤ 100 | ≤ 100 | – | – |
| Fc1cc(F)c(O[C@@H](c2cccnc2)[C@H]2CCNC2)c(F)c1 [Example 2-68, 3-[(R)-(S)-Pyrrolidin-3-yl-(2,4,6-trifluorophenoxy)methyl]pyridine] | ≤ 10000 | ≤ 10000 | – | – |
| Clc1cccc(Cl)c1O[C@H](c1cccnc1)[C@H]1CCNC1 [Example 2-73, 3-[(S)-(2,6-Dichlorophenoxy)-(S)-pyrrolidin-3-yl-methyl]pyridine] | ≤ 100 | ≤ 100 | – | – |
| Fc1cncc([C@H](Oc2cccc3ccccc23)[C@H]2CCNC2)c1.O=C(O)C(F)(F)F [19-2] | – | – | ≧7.0 | ≧7.0 |
| Clc1ccc(O[C@@H](c2ncco2)[C@H]2CCNC2)cc1.O=C(O)C(F)(F)F [6-47] | – | – | ≧7.0 | ≧7.0 |
| Cc1nc(O[C@@H](c2ccccc2)[C@H]2CCNC2)c(Br)cc1Br.O=C(O)C(F)(F)F [14-12] | – | – | ≧7.0 | ≧7.0 |
| Fc1cc(F)c(O[C@H](c2cccnc2)[C@H]2CCNC2)c(F)c1 [Example 2-69, 3-[(S)-(S)-Pyrrolidin-3-yl-(2,4,6-trifluorophenoxy)methyl]pyridine] | ≤ 100 | ≤ 100 | – | – |

Second part, led by results:

| Ki (SERT) [nM] | Ki (NET) [nM] | SMILES | SERT pKi (SERT) | NET pKi (NET) |
| --- | --- | --- | --- | --- |
| ≤ 100 | ≤ 100 | Clc1cc(Cl)cc(O[C@@H](c2ccco2)[C@H]2CCNC2)c1 [Example 8-3, (S)-3-[(R)-(3,5-Dichlorophenoxy)furan-2-yl-methyl]pyrrolidine] | – | – |
| ≤ 100 | ≤ 10000 | Cc1cc(Cl)ccc1O[C@H](c1cnccn1)[C@H]1CCNC1 [10-6] | – | – |
| ≤ 100 | ≤ 100 | Clc1cc(Cl)cc(OC(c2ccoc2)C2CCNC2)c1 [Example 9-1, (S)-3-[(R)-(3,5-Dichlorophenoxy)-furan-3-yl-methyl]pyrrolidione] | – | – |
